Results taken from patent publication US20170240556A1, “BIFLUORODIOXALANE-AMINO-BENZIMIDAZOLE KINASE INHIBITORS FOR THE TREATMENT OF CANCER, AUTOIMMUNEINFLAMMATION AND CNS DISORDERS” (4SC DISCOVERY GMBH, priority 2012, published 2017).

Experiments:
Assay in all cases: Proliferation Assay
Assay type in all cases: cell-based
786O (kidney) = details: Homo sapiens, 786-0, 72 h, read-out: IC50 inhibition of cell growth
Procedure: (§1) For the determination of the inhibitory capacity of compounds of the present invention (in the following: “test compound(s)”) on cell growth, cancer cells were seeded into microtitre plates, treated with different concentrations of test compound or left untreated, and after 72 h the protein content was determined as an equivalent for the cell number.
(§2) Test compounds were dissolved in 100% DMSO and predilutions in cell culture medium were prepared with a final concentration of 0.1% DMSO in medium. The cell culture medium for dilution of the test compounds, consecutive culturing of cell lines and usage during the assay was a cell line specific medium as recommended by the cell line supplier and identical for all three applications mentioned above. After a 24-hour pre-growth period of the seeded cancer cells, the test compound containing media or medium containing 0.1% DMSO as control was added to the cells. The cells were allowed to grow at 37° C. for 72 hours. In addition, all experiments contained a few plates with cells that were processed for measurement immediately after the 24 hours recovery period. These plates contained information about the cell number that existed before treatment, at time zero, and served to calculate the cytotoxicity and/or growth inhibitory effects.
(§3) After treatment, cells were precipitated by addition of 10% TCA (trichloracetic acid). Prior to fixation, the media was aspirated. After an hour of incubation at 4° C. the plates were washed twice with 400 μl of deionized water. Cells were then stained with 100 μl of a 0.08% wt/v SRB (sulforhodamine). The plates were allowed to sit for at least 30 min and washed six times with 1% acetic acid to remove unbound staining agent. The plates were left to dry at room temperature and bound SRB was solubilized with 100 μl of 10 mM Tris base. Measurement of optical density was performed at 560 nm on a Victor 2 plate reader (Perkin Elmer, Germany).
(§4) One common way to express the effect of an anticancer agent is to measure cell viability and survival in the presence of the test agent as % Treated/Control×100. The relationship between the viability and dose is called a dose response curve. Those dose response curves were determined by using algorithms developed by Oncolead GmbH & Co. KG, Munich, Germany, that can be compared to commercial applications, e.g. XLfit™ (ID Business Solutions Ltd., Guildford, UK) algorithm “205”.

A204 (muscle) = details: Homo sapiens, 72 h, read-out: IC50 inhibition of cell growth
Procedure: as §1, §2, §3, §4

ASPC1 (pancreas) = details: Homo sapiens, 72 h, read-out: IC50 inhibition of cell growth
Procedure: as §1, §2, §3, §4

CASKI (cervix) = details: Homo sapiens, Ca-Ski, 72 h, read-out: IC50 inhibition of cell growth
Procedure: as §1, §2, §3, §4

COLO205 (colon) = details: Homo sapiens, COLO 205, 72 h, read-out: IC50 inhibition of cell growth
Procedure: as §1, §2, §3, §4

DLD1 (colon) = details: Homo sapiens, DLD-1, 72 h, read-out: IC50 inhibition of cell growth
Procedure: as §1, §2, §3, §4

HEK293 (kidney) = details: Homo sapiens, 72 h, read-out: IC50 inhibition of cell growth
Procedure: as §1, §2, §3, §4

HELA (cervix) = details: Homo sapiens, 72 h, read-out: IC50 inhibition of cell growth
Procedure: as §1, §2, §3, §4

HEPG2 (liver) = details: Homo sapiens, 72 h, read-out: IC50 inhibition of cell growth
Procedure: as §1, §2, §3, §4

HT29 (colon) = details: Homo sapiens, HT-29, 72 h, read-out: IC50 inhibition of cell growth
Procedure: as §1, §2, §3, §4

JEG3 (placenta) = details: Homo sapiens, JEG-3, 72 h, read-out: IC50 inhibition of cell growth
Procedure: as §1, §2, §3, §4

MDAMB436 (breast) = details: Homo sapiens, MDA-MB-436, 72 h, read-out: IC50 inhibition of cell growth
Procedure: as §1, §2, §3, §4

MDAMB468 (breast) = details: Homo sapiens, MDA-MB-468, 72 h, read-out: IC50 inhibition of cell growth
Procedure: as §1, §2, §3, §4

MIAPACA2 (pancreas) = details: Homo sapiens, MIA PaCa-2, 72 h, read-out: IC50 inhibition of cell growth
Procedure: as §1, §2, §3, §4

NCIH292 (lung) = details: Homo sapiens, NCI-H292, 72 h, read-out: IC50 inhibition of cell growth
Procedure: as §1, §2, §3, §4

NCIH460 (lung) = details: Homo sapiens, NCI-H460, 72 h, read-out: IC50 inhibition of cell growth
Procedure: as §1, §2, §3, §4

PANC1 (pancreas) = details: Homo sapiens, PANC-1, 72 h, read-out: IC50 inhibition of cell growth
Procedure: as §1, §2, §3, §4

PANC1005 (pancreas) = details: Homo sapiens, 72 h, read-out: IC50 inhibition of cell growth
Procedure: as §1, §2, §3, §4

PLCPRFS (liver) = details: 72 h, read-out: IC50 inhibition of cell growth
Procedure: as §1, §2, §3, §4

SAOS2 (bone) = details: Homo sapiens, SAOS-2, 72 h, read-out: IC50 inhibition of cell growth
Procedure: as §1, §2, §3, §4

SKHEP1 (liver) = details: Homo sapiens, SK-HEP1, 72 h, read-out: IC50 inhibition of cell growth
Procedure: as §1, §2, §3, §4

SKMEL28 (skin) = details: Homo sapiens, SK-MEL-28, 72 h, read-out: IC50 inhibition of cell growth
Procedure: as §1, §2, §3, §4

SKNSH (brain) = details: Homo sapiens, SK-N-SH, 72 h, read-out: IC50 inhibition of cell growth
Procedure: as §1, §2, §3, §4

SKOV3 (ovary) = details: Homo sapiens, SK-OV-3, 72 h, read-out: IC50 inhibition of cell growth
Procedure: as §1, §2, §3, §4

U87MG (brain) = details: Homo sapiens, U-87 MG, 72 h, read-out: IC50 inhibition of cell growth
Procedure: as §1, §2, §3, §4

IC50 (ASPC1 (pancreas)): ≤ 1 µM
IC50 (COLO205 (colon)): ≤ 1 µM
IC50 (DLD1 (colon)): ≤ 1 µM
IC50 (HELA (cervix)): ≤ 1 µM
IC50 (HEPG2 (liver)): ≤ 1 µM
IC50 (HT29 (colon)): ≤ 1 µM
IC50 (MDAMB436 (breast)): ≤ 1 µM
IC50 (MDAMB468 (breast)): ≤ 1 µM
IC50 (MIAPACA2 (pancreas)): ≤ 1 µM
IC50 (PANC1 (pancreas)): ≤ 1 µM
IC50 (PANC1005 (pancreas)): ≤ 1 µM
IC50 (SKHEP1 (liver)): ≤ 1 µM
IC50 (SKMEL28 (skin)): ≤ 1 µM
IC50 (SKNSH (brain)): ≤ 1 µM
IC50 (SKOV3 (ovary)): ≤ 1 µM
IC50 (U87MG (brain)): ≤ 1 µM
Compound: COc1cccc(C(=O)Nc2nc3cc4c(cc3[nH]2)OC(F)(F)O4)c1 [Compound 56, N-(2,2-difluoro-5H-[1,3]dioxolo[4′,5′:4,5]benzo[1,2-d]imidazol-6-yl)-3-methoxybenzamide]
IC50 (786O (kidney)): ≤ 1 µM
IC50 (A204 (muscle)): ≤ 1 µM
IC50 (CASKI (cervix)): ≤ 1 µM
IC50 (HEK293 (kidney)): ≤ 1 µM
IC50 (JEG3 (placenta)): ≤ 1 µM
IC50 (NCIH292 (lung)): ≤ 1 µM
IC50 (NCIH460 (lung)): ≤ 1 µM
IC50 (PLCPRFS (liver)): ≤ 1 µM
IC50 (SAOS2 (bone)): ≤ 1 µM
